In patent publication US20200009110A1, “METHOD FOR TREATING AN ALLERGIC DISEASE” (Arjil Biotech Holding Company Limited, priority 2018, published 2020):
“Also recorded” adds a separate entry of the source.

Experiments:
[1] = tested on: BALB/c mice with Con A-induced hepatitis; assay: Con A-induced acute (autoimmune) hepatitis animal experiment; format: in vivo
From the text: Concanavalin A (Con A) and dexamethasone (Dex) were purchased from Sigma-Aldrich (USA). ProcartaPlex™ Immunoassays kit was purchased from Corning Inc. (USA). GOP and GPT Fuji Dri-Chem slides were purchased from Winning Medical Inc. (Taiwan).
Male BALB/c mice (7-9 weeks old) were purchased from BioLASCO Taiwan Co., Ltd or National Laboratory Animal Center (NLAC, Taiwan). Animals were housed five per cage with food and water provided ad libitum throughout the experiments. Room temperature was maintained at 23±2° C. with an alternating 12 h light-dark cycle. Animals were acclimatized for one week to minimize the effect of stress before the experiments. All experimental protocols involving animals and their care were approved by the Institutional Animal Care and Use Committee (IACUC) in ITRI (ITRI-IACUC-2018-041 and ITRI-IACUC-2018-050; accredited by AAALAC) and were carried out according to the regulations of the Council of Agriculture, Taiwan.
Con A was dissolved in pyrogen-free saline at a concentration of 3 mg/ml and intravenously injected at a dose of 15 mg/kg or 20 mg/kg of body weight to induce hepatitis. AR100DS1 and Dex were orally administered 30 min before and then 4 h and 8 h after Con A treatment. Blood and liver tissues were collected 24 h after Con A treatment. Serum were stored at −80° C. until analysis.
To assess the level of hepatocellular injury after Con A treatment, serum GPT and GOT levels were measured by Fuji Dri-Chem slides (Fuji, Japan).
The serum of the same group were pooled for cytokine assay. Cytokine levels were measured by ProcartaPlex™ Immunoassays kit according to manufacturer's instructions.
Liver tissues were fixed in 10% phosphate-buffered formaldehyde, embedded in paraffin, and stained with hematoxylin and eosin (H&E) in order to confirm tissue lesions. Tissue lesions were examined microscopically by a veterinary pathologist at BioLASCO Taiwan Co., Ltd. The criteria of severity grading system for all microscopic lesions were graded from 0 to 4 as follows: 0=none; 1=individual cell necrosis; 2=≤30% lobular necrosis; 3=≤60% lobular necrosis; 4=22 60% lobular necrosis.
Data are presented as mean±SEM. In this study, Student's t-test was used to analyze the differences between drug-and vehicle-treated groups. The difference is regarded statistically significant when p value is less than 0.05.
Autoimmune hepatitis (AIH) is a complex disease which is characterized by hepatocellular inflammation, necrosis, and a tendency to cirrhosis. The plant lectin concanavalin A (Con A)-induced acute hepatitis in BALB/c mice is a common animal model for AIH and we performed this model to evaluate the anti-hepatitis effects of AR001DS1. Dexamethasone (Dex), one of the steroids-based standard treatments of AIH, was used as a positive control.

[2] = tested on: IL-1β expression in PMA-activated THP-1 cells; assay: PMA-induced IL-1β expression in THP-1 cells (Q-PCR, immunoblotting); format: cell-based; conditions: for IL-1β mRNA expression, treatment after activation: PMA for 24 h, followed by treatment for another 24 h; for IL-1β mRNA and protein expression, pretreatment: pretreated 0.5 h, followed by PMA induction for 48 h
Description: Q-PCR analysis (left) and immunoblotting (right) for IL-1β mRNA and protein expression in THP-1 cells pretreated with AR001DS1 or AR001DS2 for 0.5 h, followed by PMA induction for 48 h.
Q-PCR analysis for IL-1β mRNA expression in THP-1 cells stimulated with PMA for 24 h, followed by treatment with or without AR001DS1 or AR001DS2 for another 24 h.
Because AR100 was composed of AR001DS1 and AR001DS2, THP-1 cells were independently pre-treated with the two components, followed by PMA activation.

[3] = tested on: PMA-induced cytokines in THP-1 cells; assay: Bio-plex human 27-plex cytokine assay in PMA treated THP-1 cells; format: cell-based; conditions: 10 μg/ml for 0.5 hr, then PMA 10 ng/ml for 24 hr
From the text: In addition to IL-1β, several cytokines participated in inflammatory responses. To identify cytokine networks affected by AR001DS1, we performed Bio-plex analysis to monitor the effect of AR001DS1 treatment on the expression of human 27 cytokines in PMA treated THP-1 cells.

RBL-2H3 cells = assay: β-Hexosaminidase secretion assay (mast cell degranulation); format: cell-based; conditions: 12.5, 25, 50 and 100 μg/ml, anti-DNP IgE-sensitized, DNP-BSA stimulated
Description: RBL-2H3 cells were plated in a 24-well plate and then sensitized with anti-dinitrophenyl (DNP)-IgE overnight at 37° C. in a 5% CO2 atmosphere. After washing, the cells were treated with AR001DS1 (12.5, 25, 50 and 100 μg/ml) at 37° C. for 30 min, and then stimulated with DNP-bovine serum albumin (BSA) at 37° C. for 30 min to induce degranulation. The supernatant was transferred to a 96-well microplate and incubated for 2 h with equal volume of 5 mM 4-nitrophenyl N-acetyl-b-glucosaminide in 0.1M citrate buffer (pH 4.5). The reaction was terminated by adding […] of stop buffer (0.05 M sodium carbonate, pH 10), and OD at 405 nm was determined using an ELISA plate reader.

[4] = tested on: TNF-α secretion in DCs from C57BL/6 mice; assay: ELISA assay for TNF-α secretion by LPS-stimulated dendritic cells; format: cell-based; conditions: AR001DS1 12.5, 25, 50 and 100 μg/ml
Description: DCs were isolated from C57BL/6 mice and incubated at 37° C. for 7 days. Then DCs were plated in a 24-well plate and cultured at 37° C. overnight in a 5% CO2 atmosphere. DCs were treated with AR001DS1 (12.5, 25, 50 and 100 μg/ml) for 1 h, and then stimulated with lipopolysaccharide (LPS) for 4 h. The supernatants were collected and TNF-α secretion in culture supernatants was quantitated using an ELISA assay.

[5] = tested on: animal model of gout arthritis; assay: Animal model of gout arthritis; conditions: in vivo

SMILES: C=C1C(=O)OC2/C=C(\C)CC3C=C(CC/C=C(\C)CCC12)C(=O)O3 (stereo not drawn) [AR001DS1, ovatodiolide]
- liver necrosis histopathological score (0-4) ([1]; 50 mg/kg oral, 15 mg/kg Con A, vehicle 1.4±0.2): 0.2±0.2
- serum GPT ([1]; 50 mg/kg oral, 15 mg/kg Con A, vehicle 368±107, p<0.05): 109±25 U/L
- serum GOT ([1]; 50 mg/kg oral, 15 mg/kg Con A, vehicle 410±56): 261±45 U/L
- IL-1β mRNA expression, treatment after activation [2]: inhibits PMA-induced IL-1β expression
- IL-1β mRNA expression, treatment after activation ([2]; listed as AR100DS1): attenuated the expression of IL-1β
- IL-1β mRNA and protein expression, pretreatment [2]: blocked the expression of IL-1β; also recorded: inhibits PMA-induced IL-1β expression
- IL-1β expression (Bio-plex) [3]: attenuated its expression
- MIP-α and -β expression (Bio-plex) [3]: blocked their expressions
- induction of IL-8, TNF-α and RANTES (Bio-plex) [3]: inhibited
- secretion of β-hexosaminidase (degranulation) (RBL-2H3 cells): significantly inhibited; also recorded: suppress mast cell degranulation in a dose-dependent manner
- secretion of TNF-α [4]: better inhibitory effect on the secretion of TNF-α in LPS-stimulated DCs than quercetin; also recorded: suppress TNF-α secretion by dendritic cells (DCs) in a dose-dependent manner
- effect on gout arthritis [5]: therapeutic effects

SMILES: C=CC(OC(C)=O)c1ccc(OC(C)=O)cc1 (stereo not drawn) [AR001DS2, 1′-acetoxychavicol acetate]
- IL-1β mRNA expression, treatment after activation [2]: did not suppressed
- IL-1β mRNA and protein expression, pretreatment [2]: blocked the expression of IL-1β; also recorded: inhibits PMA-induced IL-1β expression

SMILES: C[C@@H]1C[C@H]2[C@@H]3CCC4=CC(=O)C=C[C@]4(C)[C@@]3(F)[C@@H](O)C[C@]2(C)[C@@]1(O)C(=O)CO [Dex, dexamethasone]
- serum GPT ([1]; 15 mg/kg Con A, oral, Con A alone 1437±398): 898±515 U/L
- serum GOT ([1]; 15 mg/kg Con A, oral, Con A alone 1450±433): 809±339 U/L
- liver necrosis histopathological score (0-4) ([1]; 15 mg/kg Con A, Con A alone 2.2±0.2): 1.6±0.6
- liver necrosis histopathological score (0-4) ([1]; 20 mg/kg Con A): 2.6±0.2
- serum GPT ([1]; 20 mg/kg Con A, oral): 1940±403 U/L
- serum GOT ([1]; 20 mg/kg Con A, oral, Con A alone 2249±549): 1261±282 U/L

SMILES: O=c1c(O)c(-c2ccc(O)c(O)c2)oc2cc(O)cc(O)c12 [quercetin, reference compound]
- secretion of TNF-α [4]: effectively reduced the secretion of TNF-α
